The text below walks through data of US20040214848A1, “Inhibitors of ABC drug transporters in microbial cells” (priority 2001, published 2004).

Structures are written as SMILES. Read-outs that look alike come from different tables or passages of the source.

In data set [1] the target is human PGP membranes (PGP-ATPase) (Homo sapiens, UniProt P08183). As for the experimental part: The DMSO concentration (1.0%) was constant for all conditions within the experiment.
The test substances were incubated in the PGP membranes and supplemented with MgATP, with and without sodium orthovanadate present. Orthovanadate inhibits PGP by trapping MgADP in the nucleotide binding site. Thus, the ATPase activity measured in the presence of orthovanadate represents non-PGP ATPase activity and was subtracted from the activity generated without orthovanadate to yield vanadate-sensitive ATPase activity.
(§1) ATPase assays were conducted in 96-well microtiter plates. A 0.06 mL reaction mixture containing 40 μg PGP membranes, test substance, and 4 mM MgATP, in buffer containing 50 mM Tris-MES, 2 mM EGTA, 50 mM KCl, 2 mM dithiothreitol, and 5 mM sodium azide, plus organic solvent was incubated at 37° C. for 20 minutes. […] Identical reaction mixtures containing 100 μM sodium orthovanadate were assayed in parallel. The reactions were stopped by the addition of 30 μl of 10% SDS+Antifoam A. The incubations were followed with addition of 200 μl of 35 mM Ammonium Molybdate in 15 mM Zinc Acetate:10% Ascorbic Acid (1:4) and incubated for an additional 20 minutes at 37° C. Additionally, 0.06 mL aliquots of potassium phosphate standards prepared in the buffer described above, were incubated in the plates containing the test and control substances, with SDS and detection reagent added. The liberation of inorganic phosphate was detected by its absorbance at 800 nm and quantitated by comparing the absorbance to a phosphate standard curve. The concentration dependence of the PGP was analyzed for evidence of saturation of PGP-ATPase activity, and apparent kinetic parameters were calculated by non-linear regression.
as §1, with “plates.” for “plates. A 0.06 mL reaction mixture containing 40 μg PGP membranes, test substance, and 4 mM MgATP, in buffer containing 50 mM Tris-MES, 2 mM EGTA, 50 mM KCl, 2 mM dithiothreitol, and 5 mM sodium azide, plus organic solvent was incubated at 37° C. for 20 minutes.”, “PGP-associated ATPase” for “PGP-ATPase”
as §1, with “The effect of tobramycin on PGP-associated ATPase activity was also assayed. The tobramycin was incubated in human PGP membranes (BD Biosciences, Franklin Lakes, N.J., Gentest Cat. K228) and supplemented with MGATP, with and without sodium orthovanadate present. ATPase” for “ATPase”, “tobramycin,” for “test substance,”, “solvent (1% DMSO)” for “solvent”, “curve.” for “curve. The concentration dependence of the PGP was analyzed for evidence of saturation of PGP-ATPase activity, and apparent kinetic parameters were calculated by non-linear regression.”

Data set [2] concerns the target T1, human PGP (Homo sapiens, UniProt P08183). Put plainly: Inhibition of PGP-mediated [3H]-digoxin transport in human PGP-expressing LLC-PK1 (15B-J) cell monolayers. Conditions: for Concentrations at which inhibitory behavior was exhibited: pH 7.2.
The subject of data set [3] is CLA (control) Monolayer, LLC-PK1 cells. Conditions: pig, 120 min, 10 µM, pH 7.2.
In data set [4] the test system is Plasmodium falciparum strains. Conditions: more rapidly; cited from earlier work.
Data set [5] addresses T1, human PGP.

Sequence of human PGP membranes (PGP-ATPase) (P08183 whole entry): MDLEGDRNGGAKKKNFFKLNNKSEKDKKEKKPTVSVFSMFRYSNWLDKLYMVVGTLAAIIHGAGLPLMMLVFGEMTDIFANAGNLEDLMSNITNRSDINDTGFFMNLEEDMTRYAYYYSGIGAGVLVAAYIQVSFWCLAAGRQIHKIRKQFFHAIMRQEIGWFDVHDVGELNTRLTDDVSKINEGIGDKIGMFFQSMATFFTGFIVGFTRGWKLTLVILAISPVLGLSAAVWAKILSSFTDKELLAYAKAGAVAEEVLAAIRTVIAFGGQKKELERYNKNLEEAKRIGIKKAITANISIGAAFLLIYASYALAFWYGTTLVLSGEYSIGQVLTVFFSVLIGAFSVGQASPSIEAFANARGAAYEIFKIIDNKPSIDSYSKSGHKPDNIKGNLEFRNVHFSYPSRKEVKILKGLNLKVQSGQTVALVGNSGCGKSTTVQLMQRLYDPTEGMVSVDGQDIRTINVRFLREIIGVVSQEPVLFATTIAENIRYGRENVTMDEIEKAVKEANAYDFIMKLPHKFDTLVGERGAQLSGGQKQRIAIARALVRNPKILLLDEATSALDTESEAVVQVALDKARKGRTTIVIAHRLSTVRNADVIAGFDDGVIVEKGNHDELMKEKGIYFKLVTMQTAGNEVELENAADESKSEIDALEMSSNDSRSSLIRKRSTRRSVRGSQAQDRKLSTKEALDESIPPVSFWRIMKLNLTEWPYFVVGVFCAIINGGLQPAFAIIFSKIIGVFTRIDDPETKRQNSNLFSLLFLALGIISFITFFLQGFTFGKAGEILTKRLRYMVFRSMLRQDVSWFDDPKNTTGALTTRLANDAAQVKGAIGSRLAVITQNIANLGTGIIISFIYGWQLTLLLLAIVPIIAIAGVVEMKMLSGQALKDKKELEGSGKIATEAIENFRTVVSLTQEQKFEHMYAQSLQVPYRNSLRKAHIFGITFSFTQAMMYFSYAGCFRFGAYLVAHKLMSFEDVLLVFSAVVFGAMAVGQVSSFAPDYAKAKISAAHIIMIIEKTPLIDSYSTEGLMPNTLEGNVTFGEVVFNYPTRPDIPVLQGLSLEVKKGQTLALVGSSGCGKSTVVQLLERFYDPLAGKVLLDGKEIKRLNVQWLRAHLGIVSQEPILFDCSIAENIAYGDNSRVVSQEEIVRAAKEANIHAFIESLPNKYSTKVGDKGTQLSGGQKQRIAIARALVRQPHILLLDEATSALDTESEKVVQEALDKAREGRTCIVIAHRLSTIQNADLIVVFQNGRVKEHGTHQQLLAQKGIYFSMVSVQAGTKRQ
T1 sequence (P08183 whole entry): as above

Turning to `C=C1CC[C@@]2(O)[C@H]3Cc4ccc(O)c5c4[C@@]2(CCN3CC2CC2)[C@H]1O5` [Nalmefene, nalmefene], the “Effect on PGP-associated ATPase activity (result in words)” value (from here on “Effect on PGP-associated ATPase activity”) in data set [1] (semi-quantitative assay) is reported as “not to limit the ATPase activity”. For the same molecule, the “Concentration dependence of inhibition of digoxin transport (result in words)” value on human PGP [2] is “increasingly inhibited in response to increasing concentration”. At human PGP [2] (human, LLC-PK1, pH 7.2), the “Efflux ratio B→A/A→B, Hi Affinity/Low Cap” value was 4.2 (3.0) and the “Efflux ratio B→A/A→B, Low Affinity/Hi Cap” value is listed as 2.6 (1.9). The “Concentrations at which inhibitory behavior was exhibited” value at human PGP [2] (human) was 100 to 100000 nM.
Regarding `CC[C@H]1OC(=O)[C@H](C)[C@@H](O[C@H]2C[C@@](C)(OC)[C@@H](O)[C@H](C)O2)[C@H](C)[C@@H](O[C@@H]2O[C@H](C)C[C@H](N(C)C)[C@H]2O)[C@](C)(O)C[C@@H](C)C(=O)[C@H](C)[C@@H](O)[C@]1(C)O` [Erythromycin, erythromycin], in data set [3], the “pmoles in Receiver” value stood at 6.3 pmol. For the same molecule, in data set [1], the “Effect on PGP-associated ATPase activity” value is reported as “stimulate PGP-associated ATPase activity”. For the same molecule, the “ATPase Activity” value in data set [1] (human, 20 min, 0.1 μM) came to 1.1 nmol/mg/min; in data set [1] (human, 20 min, 0.2 µM), 2.0 nmol/mg/min; in data set [1] (human, 20 min, 0.4 µM), 0.8 nmol/mg/min; in data set [1] (human, 20 min, 0.8 µM), 0.1 nmol/mg/min; in data set [1] (human, 20 min, 3.13 µM), 0.5 nmol/mg/min; in data set [1] (human, 20 min, 6.25 µM) it was 0.6 nmol/mg/min. For the same molecule, the “ATPase Activity” value in data set [1] (human, 20 min, 12.5 µM) was 2.8 nmol/mg/min; in data set [1] (human, 20 min, 25 µM), 8.2 nmol/mg/min; in data set [1] (human, 20 min, 50 µM), 14.0 nmol/mg/min; in data set [1] (human, 20 min, 100 μM), 15.6 nmol/mg/min.
For `CCN(CC)CCCC(C)Nc1ccnc2cc(Cl)ccc12` (stereo not drawn) [chloroquine], the “Efflux of the drug, chloroquine-resistant versus chloroquine-sensitive strains” value in data set [4] is on record as 40-50 times.
`O=C1CC[C@@]2(O)[C@H]3Cc4ccc(O)c5c4[C@@]2(CCN3CC2CC2)[C@H]1O5` [Naltrexone, naltrexone]: the “ATPase Activity” value in data set [1] (0.003 μM test substance) is -0.3 nmol/mg/min; in data set [1] (0.01 μM test substance) it was 0.0 nmol/mg/min; in data set [1] (0.03 μM test substance), -1.6 nmol/mg/min; in data set [1] (0.1 μM test substance), -0.7 nmol/mg/min; in data set [1] (0.3 μM test substance) it was -1.4 nmol/mg/min; in data set [1] (1.0 μM test substance) it was -0.8 nmol/mg/min. Further, the “ATPase Activity” value was 2.1 nmol/mg/min in data set [1] (3.0 μM test substance), 2.0 nmol/mg/min in data set [1] (10 μM test substance), -2.0 nmol/mg/min in data set [1] (30 μM test substance) and 4.6 nmol/mg/min in data set [1] (100 μM test substance).
Take `Oc1ccc2c3c1O[C@H]1[C@H](O)CC[C@@]4(O)[C@@H](C2)N(CC2CC2)CC[C@]314` [6-β-Naltrexol, 6-β-naltrexol]: the “Concentration dependence of inhibition of digoxin transport (result in words)” value at human PGP [5] is “did not appear to be concentration-dependent”. For the same molecule, at human PGP [2] (concentration range of 0.0001 to 30 μM), the “Inhibition of digoxin efflux, mean” value is 8.5 +/−7.1%. Further, on human PGP [2] (ketoconazole at 25 μM, test substance over the concentration range tested), the “Inhibition of PGP-mediated digoxin transport (result in words)” value is “inhibitor of PGP-mediated digoxin transport”.
In the case of `C=CCN1CC[C@]23c4c5ccc(O)c4O[C@H]2C(=O)CC[C@@]3(O)[C@H]1C5` [Naloxone, naloxone], in data set [1] (semi-quantitative assay), the “Effect on PGP-associated ATPase activity” value is recorded as “not to limit the ATPase activity”. On human PGP [2], the “Concentration dependence of inhibition of digoxin transport (result in words)” value is “not concentration-dependent”. Besides, the “Concentrations at which inhibitory behavior was exhibited” value on human PGP [2] (human) was 100 to 100000 nM.
In the case of `NC[C@H]1O[C@H](O[C@H]2[C@H](O)[C@@H](O[C@H]3O[C@H](CO)[C@@H](O)[C@H](N)[C@H]3O)[C@H](N)C[C@@H]2N)[C@H](N)C[C@@H]1O` [Tobramycin, tobramycin], the “Effect on PGP-associated ATPase activity” value in data set [1] is “stimulate PGP-associated ATPase activity”. Also, the “ATPase Activity” value was -1.6 nmol/mg/min in data set [1] (human, 20 min, 0.1 μM); -2.6 nmol/mg/min in data set [1] (human, 20 min, 0.2 µM); -2.6 nmol/mg/min in data set [1] (human, 20 min, 0.4 µM); -3.3 nmol/mg/min in data set [1] (human, 20 min, 0.8 µM); -2.6 nmol/mg/min in data set [1] (human, 20 min, 3.13 µM); -1.4 nmol/mg/min in data set [1] (human, 20 min, 6.25 µM). Further, the “ATPase Activity” value is -1.0 nmol/mg/min in data set [1] (human, 20 min, 12.5 µM); 0.2 nmol/mg/min in data set [1] (human, 20 min, 25 µM); 0.3 nmol/mg/min in data set [1] (human, 20 min, 50 µM); 1.5 nmol/mg/min in data set [1] (human, 20 min, 100 μM).
